Reference: US20060127324A1, “Chewable oral compositions containing an anti-microbial agent and methods of formulating the compositions to have acceptable germ kill properties and taste” (Cadbury Adams USA LLC, priority 2004, published 2006)
≈ marks a conversion by molar mass, not a printed value.

Experiments:
[1] = Release of anti-microbial agent from chewing gum composition after 10 minutes of chewing; assay type: physicochemical; conditions: for Q factor (100/percentage released): chewing gum composition; for Release Rate (%) After 10 Minutes of Chewing: chewing gum compositions
Procedure: The germ kill potential (P) therefore is determined by the product of the concentration of at least one anti-microbial agent contained in the composition and the germ kill rating of each anti-microbial agent. The result is in turn multiplied by the mass of the composition and a factor Q as defined previously which is a measure of how easily the anti-microbial agent is released from the oral composition into the oral cavity. The Q factor may be readily determined for a given oral composition by comparing the amount of the anti-microbial agent present in the oral composition before placement in the oral cavity and how much remains after placement in the oral cavity for a fixed period of time. For other compositions such as chewing gum compositions, the release rate of the anti-microbial agent is much slower. Typically only a portion of the anti-microbial agent is released instantaneously and/or on initial chewing. For example, the release rate of anti-microbial agents after 10 minutes of chewing can be as low as less than 10%. […] Thus, the factor Q is 11.1 (100%/9%). The targeted (P) value selected for the chewing gum composition would therefore have to be about 11.1 times greater than the (P) value for the corresponding pressed mint composition.

[2] = tested on: microorganisms found in the oral cavity; assay: Minimum inhibitory concentration (MIC) of anti-microbial agent; assay type: cell-based
Description: The germ kill rating (R) of each anti-microbial agent used in the oral composition is the ratio of the maximum acceptable taste concentration (ATC) of the anti-microbial agent and the minimum inhibitory concentration (MIC). The germ kill rating (R) is therefore a value representative of the suitability of a particular anti-microbial agent to provide a balance between acceptable taste and germ killing efficacy. A relatively high (R) value is indicative of an anti-microbial agent that can be used in a relatively large range of concentrations without adversely effecting taste while still obtaining the desired germ kill properties. […] However, thymol has a very low maximum acceptable taste concentration and therefore provides a germ kill rating (R) of 1.1 which is lower than the other four essential oils in Table 2 even though the other essential oils have a higher minimum inhibitory concentration.

[3] = tested on: microorganisms found in the oral cavity; assay: Germ kill rating (R), ratio of ATC and MIC; conditions: mint lozenge having a weight of 1.5 grams
Description: The germ kill rating (R) is therefore a quantitative indication of the range of concentrations of the anti-microbial agent (i.e. effective concentration range) that may be employed to achieve both the desirable germ kill properties and acceptable taste. By way of example, an anti-microbial agent having a germ kill rating of 10 has an effective concentration range twice as large as an anti-microbial agent having a germ kill rating of 5. The germ kill rating (R) of each anti-microbial agent used in the oral composition is the ratio of the maximum acceptable taste concentration (ATC) of the anti-microbial agent and the minimum inhibitory concentration (MIC). The germ kill rating (R) is therefore a value representative of the suitability of a particular anti-microbial agent to provide a balance between acceptable taste and germ killing efficacy. A relatively high (R) value is indicative of an anti-microbial agent that can be used in a relatively large range of concentrations without adversely effecting taste while still obtaining the desired germ kill properties. […] The maximum acceptable taste concentration (ATC) of an anti-microbial agent can be determined through known population sampling methods. […] The results are averaged and analyzed according to known statistical methods to yield the ATC value for a particular anti-microbial agent in a given solid carrier (e.g. mint lozenge). […]

| Q factor (100/percentage released) [1] | Release Rate (%) After 10 Minutes of Chewing [1] [%] | Release Rate (%) After 10 Minutes of Chewing ([1]; listed as eucalyptol) [%] | MIC [2] [µg/mL] | SMILES | Germ Kill Rating (R) [3] |
| --- | --- | --- | --- | --- | --- |
| 5.025 | 19.9 | 19.9 | – | CC12CCC(CC1)C(C)(C)O2 [Eucalyptol] | – |
| 11.1 | 9 | – | 500 (≈ 3200 µM) | CC1CCC(C(C)C)C(O)C1 (centres unmarked) [Menthol] | 24 |
| – | 10.4 | – | – | CC(C)[C@@H]1CC[C@@H](C)CC1=O [Menthone] | – |
| – | 8.9 | – | – | COC(=O)c1ccccc1O [Methyl Salicylate] | – |
| – | – | – | 87 (≈ 579 µM) | Cc1ccc(C(C)C)c(O)c1 [Thymol] | 1.1 |
